The values below come from patent US20260200942A1, “PARP7 INHIBITORS AND THEIR APPLICATIONS” (CHONGQING PHARSCIN INNOBIO CO., LTD., priority 2023, published 2026).

As usually defined, the IC50 is the concentration at which inhibition is half-maximal. A higher IC50 goes with lower potency.

This assay has as its target T1, PARP7 (Homo sapiens, UniProt Q7Z3E1).
T1 construct: purchased BPS 80527
T1 sequence (Q7Z3E1 1-657): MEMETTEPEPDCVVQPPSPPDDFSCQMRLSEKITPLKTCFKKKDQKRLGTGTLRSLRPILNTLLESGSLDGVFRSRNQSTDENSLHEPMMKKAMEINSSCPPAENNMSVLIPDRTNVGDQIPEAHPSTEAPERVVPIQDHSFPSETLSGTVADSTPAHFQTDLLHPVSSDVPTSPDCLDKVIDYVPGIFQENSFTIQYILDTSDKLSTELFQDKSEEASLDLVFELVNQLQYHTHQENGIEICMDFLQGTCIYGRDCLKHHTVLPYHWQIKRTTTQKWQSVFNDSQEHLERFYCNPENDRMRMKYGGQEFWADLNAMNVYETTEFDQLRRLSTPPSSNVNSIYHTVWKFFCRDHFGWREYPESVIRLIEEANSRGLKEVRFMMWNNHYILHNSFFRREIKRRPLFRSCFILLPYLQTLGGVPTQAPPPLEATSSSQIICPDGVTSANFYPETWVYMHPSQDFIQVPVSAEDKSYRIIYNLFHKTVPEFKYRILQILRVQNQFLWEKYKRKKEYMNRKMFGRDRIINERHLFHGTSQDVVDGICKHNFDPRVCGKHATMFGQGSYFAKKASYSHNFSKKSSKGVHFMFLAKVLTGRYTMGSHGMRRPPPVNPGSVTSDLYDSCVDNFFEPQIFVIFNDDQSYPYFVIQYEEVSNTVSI
As to the kind of experiment: PARP7 inhibitory activity assay (histone-coated 384-well plate, chemiluminescence). In kind it is biochemical. The source says: Inhibition rate (%) calculation formula: […]

Each structure is given as a SMILES string.

In the case of `O=C([C@H]1CC[C@H](NCc2c[nH]c(=O)c(C(F)(F)F)c2)C1)N1C2CCC1CN(c1ncc(C(F)(F)F)cn1)C2` [Embodiment 1], the 50% inhibitory concentration (IC50) lay within 1 to 10 µM.

For the compound `C[C@@H](CN1CC[C@@H](C(=O)N2C3CCC2CN(c2ncc(C(F)(F)F)cn2)C3)C1)Nc1cn[nH]c(=O)c1C(F)(F)F` [Embodiment 2], the 50% inhibitory concentration (IC50) was 0.01 to 0.1 µM.

`C[C@@H](CN1CC[C@H](C(=O)N2C3CCC2CN(c2ncc(C(F)(F)F)cn2)C3)C1)Nc1cn[nH]c(=O)c1C(F)(F)F` [Embodiment 6]: the IC50 fell in the range of 0.01 to 0.1 µM.

Compound `O=C(c1ccc(NCc2c[nH]c(=O)c(C(F)(F)F)c2)cc1)N1C2CCC1CN(c1ncc(C(F)(F)F)cn1)C2` [Embodiment 7] registered an IC50 of 0.1 to 1 µM.

Compound `C[C@@H]1CN(c2ncc(C(F)(F)F)cn2)CCN1C(=O)[C@H]1C[C@H](NCc2c[nH]c(=O)c(C(F)(F)F)c2)C1` [Embodiment 8] came in with an IC50 of 0.01 to 0.1 µM.

With `O=C([C@H]1CCN(Cc2c[nH]c(=O)c(C(F)(F)F)c2)C1)N1C2CCC1CN(c1ncc(C(F)(F)F)cn1)C2` [Embodiment 9, 3-(trifluoromethyl)-5-(((3S)-3-(3-(5-(trifluoromethyl)pyrimidin-2-yl)-3,8-diazabicyclo[3.2.1]octane-8-carbonyl)pyrrolidin-1-yl)methyl)pyridin-2(1H)-one], the IC50 was in the range of 1 to 10 µM.

`O=C([C@@H]1CCN(Cc2c[nH]c(=O)c(C(F)(F)F)c2)C1)N1C2CCC1CN(c1ncc(C(F)(F)F)cn1)C2` [Embodiment 10, 3-(trifluoromethyl)-5-(((3R)-3-(3-(5-(trifluoromethyl)pyrimidin-2-yl)-3,8-diazabicyclo[3.2.1]octane-8-carbonyl)pyrrolidin-1-yl)methyl)pyridin-2(1H)-one] showed an IC50 of 0.01 to 0.1 µM.

Regarding `O=C([C@H]1CCN(Cc2cc(C(F)(F)F)c(=O)[nH]n2)C1)N1C2CCC1CN(c1ncc(C(F)(F)F)cn1)C2` [Embodiment 11, 4-(trifluoromethyl)-6-(((3S)-3-(3-(5-(trifluoromethyl)pyrimidin-2-yl)-3,8-diazabicyclo[3.2.1]octane-8-carbonyl)pyrrolidin-1-yl)methyl)pyridazin-3(2H)-one], the IC50 was in the range of 0.1 to 1 µM.

`O=C([C@H]1CCC[C@H](NCc2c[nH]c(=O)c(C(F)(F)F)c2)C1)N1CCN(c2ncc(C(F)(F)F)cn2)CC1` [Embodiment 16] came in with an IC50 of 1 to 10 µM.

`O=C([C@H]1CCCN(Cc2c[nH]c(=O)c(C(F)(F)F)c2)C1)N1CCN(c2ncc(C(F)(F)F)cn2)CC1` [Embodiment 17]: the IC50 fell in the range of 0.1 to 1 µM.

Regarding `O=C(C1CCN(Cc2c[nH]c(=O)c(C(F)(F)F)c2)CC1)N1CCN(c2ncc(C(F)(F)F)cn2)CC1` [Embodiment 18], the IC50 is 0.1 to 1 µM.

With `O=c1[nH]cc(CN[C@H]2C[C@@H](C(=O)N3CCN(c4ncc(C(F)(F)F)cn4)CC3)C2)cc1C(F)(F)F` [Embodiment 19], the IC50 was in the range of 0.01 to 0.1 µM.

As for `O=c1[nH]nc(CN[C@H]2C[C@@H](C(=O)N3CCN(c4ncc(C(F)(F)F)cn4)CC3)C2)cc1C(F)(F)F` [Embodiment 20], the IC50 was in the range of 0.1 to 1 µM.

Consider `O=C(C1CC2(C1)CN(Cc1c[nH]c(=O)c(C(F)(F)F)c1)C2)N1CCN(c2ncc(C(F)(F)F)cn2)CC1` [Embodiment 21], for which the IC50 is 1 to 10 µM.

Compound `O=C([C@@H]1CCCN(Cc2c[nH]c(=O)c(C(F)(F)F)c2)C1)N1CCN(c2ncc(C(F)(F)F)cn2)CC1` [Embodiment 22] displayed an IC50 of 0.01 to 0.1 µM.

`C[C@H]1CN(C(=O)[C@H]2C[C@H](NCc3c[nH]c(=O)c(C(F)(F)F)c3)C2)CCN1c1ncc(C(F)(F)F)cn1` [Embodiment 23]: the IC50 was < 0.01 µM.

The compound `O=C([C@@H]1CCN(Cc2c[nH]c(=O)c(C(F)(F)F)c2)C1)N1CCN(c2ncc(C(F)(F)F)cn2)CC1` [Embodiment 24] returned an IC50 of 0.01 to 0.1 µM.

Compound `O=C(N1CCN(c2ncc(C(F)(F)F)cn2)CC1)C12CC(NCc3c[nH]c(=O)c(C(F)(F)F)c3)(C1)C2` [Embodiment 25] displayed a half-maximal inhibitory concentration (IC50) of 0.1 to 1 µM.

In turn, `C[C@H]1CN(C(=O)C2CN(Cc3c[nH]c(=O)c(C(F)(F)F)c3)C2)CCN1c1ncc(C(F)(F)F)cn1` [Embodiment 26] displayed an IC50 of 0.01 to 0.1 µM.

With `O=C(C1CN(Cc2c[nH]c(=O)c(C(F)(F)F)c2)C1)N1CCN(c2ccc(C(F)(F)F)cn2)CC1` [Embodiment 27], the IC50 lay within 0.01 to 0.1 µM.

`O=c1[nH]cc(CN[C@H]2C[C@H](C(=O)N3CCN(c4ccc(C(F)(F)F)cn4)CC3)C2)cc1C(F)(F)F` [Embodiment 28] displayed an IC50 of 0.01 to 0.1 µM.

For `O=C(C1CN(Cc2c[nH]c(=O)c(C(F)(F)F)c2)C1)N1CCN(c2cnc(C(F)(F)F)cn2)CC1` [Embodiment 29], the IC50 was in the range of 0.01 to 0.1 µM.

Consider `C[C@H]1CN(C(=O)[C@@H]2CCN(Cc3cc(C(F)(F)F)c(=O)[nH]n3)C2)CCN1c1ncc(C(F)(F)F)cn1` [Embodiment 30], for which the IC50 lay within 0.01 to 0.1 µM.

In turn, `O=C([C@@H]1CCN(Cc2cc(C(F)(F)F)c(=O)[nH]n2)C1)N1CCN(c2ncc(C(F)(F)F)cn2)CC1` [Embodiment 31] had an IC50 of 0.01 to 0.1 µM.

The compound `O=C(C1CN(Cc2cc(C(F)(F)F)c(=O)[nH]n2)C1)N1CCN(c2ccc(C(F)(F)F)cn2)CC1` [Embodiment 32] had an IC50 of 0.01 to 0.1 µM.

In the case of `COc1nnc(CN(C)[C@H]2C[C@H](C(=O)N3CCN(c4ncc(C(F)(F)F)cn4)CC3)C2)cc1C(F)(F)F` [Embodiment 33, ((1R,3R)-3-(((6-methoxy-5-(trifluoromethyl)pyridazin-3-yl)methyl)(methyl)amino)cyclobutyl)(4-(5-(trifluoromethyl)pyrimidin-2-yl)piperazin-1-yl)methanone], the IC50 lay in the range of 1 to 10 µM.

For `CN(Cc1cc(C(F)(F)F)c(=O)[nH]n1)[C@H]1C[C@H](C(=O)N2CCN(c3ncc(C(F)(F)F)cn3)CC2)C1` [Embodiment 34], the IC50 lay within 0.01 to 0.1 µM.

Take `O=C(C1CN(Cc2cc(C(F)(F)F)c(=O)[nH]n2)C1)N1CCN2c3ncc(C(F)(F)F)cc3OCC[C@@H]2C1` [Embodiment 37]: the IC50 is 0.01 to 0.1 µM.

Compound `O=c1[nH]nc(CN[C@H]2C[C@H](C(=O)N3CCN4c5ncc(C(F)(F)F)cc5OCC[C@@H]4C3)C2)cc1C(F)(F)F` [Embodiment 38] had an IC50 of 0.01 to 0.1 µM.

In turn, `O=c1[nH]nc(CN[C@H]2C[C@H](C(=O)N3CCN4c5ncc(C(F)(F)F)cc5COC[C@H]4C3)C2)cc1C(F)(F)F` [Embodiment 39] showed an IC50 of 0.01 to 0.1 µM.

The compound `O=C(C1CN(Cc2cc(C(F)(F)F)c(=O)[nH]n2)C1)N1CCN2c3ncc(C(F)(F)F)cc3OCC[C@H]2C1` [Embodiment 40, (S)-4-(trifluoromethyl)-6-((3-(3-(trifluoromethyl)-7,7a,8,9,10,11-hexahydro-6H-pyrazino[1,2-d]pyrido[3,2-b][1,4]oxazepine-9-carbonyl)azetidin-1-yl)methyl)pyridazin-3(2H)-one] registered an IC50 of 0.01 to 0.1 µM.

`O=c1[nH]nc(CN[C@H]2C[C@H](C(=O)N3CCN4c5ncc(C(F)(F)F)cc5OCC[C@H]4C3)C2)cc1C(F)(F)F` [Embodiment 41] registered an IC50 of 0.01 to 0.1 µM.

On to `O=C(C1CN(Cc2cc(C(F)(F)F)c(=O)[nH]n2)C1)N1CCN2c3ncc(C(F)(F)F)cc3COC[C@H]2C1` [Embodiment 42, (R)-4-(trifluoromethyl)-6-((3-(3-(trifluoromethyl)-7,7a,8,9,10,11-hexahydro-5H-pyrazino[2,1-c]pyrido[2,3-e][1,4]oxazepine-9-carbonyl)azetidin-1-yl)methyl)pyridazin-3(2H)-one], for which the IC50 fell in the range of 0.01 to 0.1 µM.

Compound `O=c1[nH]nc(CN[C@H]2C[C@H](C(=O)N3CCN4c5ncc(C(F)(F)F)cc5COC[C@@H]4C3)C2)cc1C(F)(F)F` [Embodiment 43] gave a half-inhibitory concentration (IC50) of 0.01 to 0.1 µM.

Regarding `O=C(C1CN(Cc2cc(C(F)(F)F)c(=O)[nH]n2)C1)N1CCN2c3ncc(C(F)(F)F)cc3COC[C@@H]2C1` [Embodiment 44, (S)-4-(trifluoromethyl)-6-((3-(3-(trifluoromethyl)-7,7a,8,9,10,11-hexahydro-5H-pyrazino[2,1-c]pyrido[2,3-e][1,4]oxazepine-9-carbonyl)azetidin-1-yl)methyl)pyridazin-3(2H)-one], the IC50 was in the range of 0.01 to 0.1 µM.

Regarding `COc1cc(C(F)(F)F)cnc1N1CCN(C(=O)[C@H]2C[C@H](NCc3cc(C(F)(F)F)c(=O)[nH]n3)C2)CC1` [Embodiment 45], the IC50 lay in the range of 0.01 to 0.1 µM.

`N#Cc1cc(C(F)(F)F)cnc1N1CCN(C(=O)[C@H]2C[C@H](NCc3cc(C(F)(F)F)c(=O)[nH]n3)C2)CC1` [Embodiment 47, 2-(4-((1R,3R)-3-(((6-oxo-5-(trifluoromethyl)-1,6-dihydropyridazin-3-yl)methyl)amino)cyclobutane-1-carbonyl)piperazin-1-yl)-5-(trifluoromethyl)nicotinonitrile]: the IC50 lay in the range of 0.01 to 0.1 µM.

In turn, `CC(C)(c1cc(C(F)(F)F)c(=O)[nH]n1)N1CC(C(=O)N2CCN(c3ncc(C(F)(F)F)cn3)CC2)C1` [Embodiment 49, 4-(trifluoromethyl)-6-(2-(3-(4-(5-(trifluoromethyl)pyrimidin-2-yl)piperazine-1-carbonyl)azetidin-1-yl)propan-2-yl)pyridazin-3(2H)-one] came in with an IC50 of 0.01 to 0.1 µM.

Turning to `N#Cc1cc(C(F)(F)F)cnc1N1CCN(C(=O)C2CC(NCc3cc(C(F)(F)F)c(=O)[nH]n3)C2)CC1` [Embodiment 50, 2-(4-((1R,3R)-3-(((6-oxo-5-(trifluoromethyl)-1,6-dihydropyridazin-3-yl)methyl)amino)cyclobutane-1-carbonyl)piperazin-1-yl)-5-(trifluoromethyl)nicotinonitrile], the IC50 was in the range of 0.01 to 0.1 µM.
